Source: ChEMBL document CHEMBL1137281, “Synthesis and biological evaluation of copper (II) complexes of sterically hindered o-aminophenol derivatives as antimicrobial agents” (2006)
Converted amounts (≈) assume the structure as drawn.

Key:
Format in all cases: functional
Micrococcus luteus = assay: Antimicrobial activity against Sarcina lutea
[1] = tested on: Staphylococcus saprophyticus; assay: Antibacterial activity against Staphylococcus saprophyticus
Candida albicans = assay: Antimicrobial activity against Candida albicans
Escherichia coli = assay: Antibacterial activity against Escherichia coli
Candida boidinii = assay: Antimicrobial activity against Candida boidinii
[2] = Antimicrobial activity against Hansenula sp.; conditions: Pichia
Saccharomyces cerevisiae = assay: Antimicrobial activity against Saccharomyces cerevisiae
Papiliotrema laurentii = assay: Antifungal activity against Cryptococcus laurentii
Cyberlindnera jadinii = assay: Antimicrobial activity against Candida utilis; conditions: Williopsis jadinii
Bacillus subtilis = assay: Antibacterial activity against Bacillus subtilis
Rhodotorula mucilaginosa = assay: Antimicrobial activity against Rhodotorula rubra
Komagataella pastoris = assay: Antimicrobial activity against Pichia pastoris
Serratia marcescens = assay: Antimicrobial activity against Serratia marcescens
Pseudomonas aeruginosa = assay: Antimicrobial activity against Pseudomonas aeruginosa
Aspergillus niger = assay: Antifungal activity against Aspergillus niger
Lipomyces lipofer = assay: Antimicrobial activity against Lipomyces lipofer

Structure (SMILES)	MIC (Micrococcus luteus) [µg/mL]	MIC [1] [µg/mL]	MIC (Candida albicans) [µg/mL]	MIC (Escherichia coli) [µg/mL]	MIC (Candida boidinii) [µg/mL]	MIC [2] [µg/mL]	MIC (Saccharomyces cerevisiae) [µg/mL]	MIC (Papiliotrema laurentii) [µg/mL]	MIC (Cyberlindnera jadinii) [µg/mL]	MIC (Bacillus subtilis) [µg/mL]	MIC (Rhodotorula mucilaginosa) [µg/mL]	MIC (Komagataella pastoris) [µg/mL]	MIC (Serratia marcescens) [µg/mL]	MIC (Pseudomonas aeruginosa) [µg/mL]	MIC (Aspergillus niger) [µg/mL]	MIC (Lipomyces lipofer) [µg/mL]
CC(C)(C)c1cc(Nc2ccccc2)c(O)c(C(C)(C)C)c1	> 50	> 50	> 50	> 50	> 50	> 50	> 50	> 50	> 50	> 50	> 50	> 50	> 50	> 50	> 50	> 50
CC(C)(C)c1cc(N)c(O)c(C(C)(C)C)c1	12.5 (≈ 56.5 µM)	12.5 (≈ 56.5 µM)	> 50	> 50	> 50	6.25 (≈ 28.2 µM)	6.25 (≈ 28.2 µM)	6.25 (≈ 28.2 µM)	> 50	25 (≈ 113 µM)	50 (≈ 226 µM)	6.25 (≈ 28.2 µM)	> 50	> 50	> 50	6.25 (≈ 28.2 µM)
Nc1ccccc1O [QUESTIOMYCIN B]		> 50	> 50	> 50	> 50	> 50	> 50		> 50	> 25		> 50	> 50	> 50	> 50	
